Target: T1, human PTH1 receptor (Homo sapiens, UniProt Q03431)
T1 sequence (Q03431 27-593): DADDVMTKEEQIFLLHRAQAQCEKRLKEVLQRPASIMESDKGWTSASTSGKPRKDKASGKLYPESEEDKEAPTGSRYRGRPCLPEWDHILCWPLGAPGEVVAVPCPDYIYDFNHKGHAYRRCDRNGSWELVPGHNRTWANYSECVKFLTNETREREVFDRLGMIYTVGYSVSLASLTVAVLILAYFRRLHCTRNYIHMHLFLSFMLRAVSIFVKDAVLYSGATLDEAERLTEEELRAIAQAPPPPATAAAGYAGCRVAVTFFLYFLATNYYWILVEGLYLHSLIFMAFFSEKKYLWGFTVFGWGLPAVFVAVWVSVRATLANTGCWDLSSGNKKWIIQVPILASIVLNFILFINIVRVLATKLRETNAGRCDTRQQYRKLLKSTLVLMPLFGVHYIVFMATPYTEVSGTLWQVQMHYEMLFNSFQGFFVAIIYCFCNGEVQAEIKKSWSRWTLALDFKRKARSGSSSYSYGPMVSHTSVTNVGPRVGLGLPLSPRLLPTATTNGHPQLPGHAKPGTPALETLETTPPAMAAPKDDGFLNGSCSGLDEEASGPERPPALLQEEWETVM
Assay: In vitro cAMP signal activity in HKRK-B7 cells (LLC-PK1 cells overexpressing the human PTH1 receptor)
Format: cell-based
Conditions: HKRK-B7 cells; compound at 1×10^−3 M; cAMP produced as percentage of that produced by hPTH(1-34) at 100 nM

Row | SMILES | cAMP production activity (%)
1 | O=C1NC(C2CCCCC2)=NC12CCN(S(=O)(=O)/C=C/c1cccc3c1ccn3C[C@H](O)CO)CC2 [Compound 191, 2-cyclohexyl-8-{(E)-2-[1-((S)-2,3-dihydroxy-propyl)-1H-indol-4-yl]-ethenesulfonyl}-1,3,8-triaza-spiro[4.5]dec-1-en-4-one] | 57
2 | O=C1NC(C2CCCCC2)=NC12CCN(S(=O)(=O)/C=C/c1cccc3c1ccn3CCN1CCOCC1)CC2 [Compound 192, 2-cyclohexyl-8-{(E)-2-[1-(2-morpholin-4-yl-ethyl)-1H-indol-4-yl]-ethenesulfonyl}-1,3,8-triaza-spiro[4.5]dec-1-en-4-one] | 52
3 | CN(C)C(=O)Cn1ccc2c(/C=C/S(=O)(=O)N3CCC4(CC3)N=C(C3CCCCC3)NC4=O)cccc21 [Compound 193, 2-{4-[(E)-2-(2-cyclohexyl-4-oxo-1,3,8-triaza-spiro[4.5]dec-1-ene-8-sulfonyl)-vinyl]-indol-1-yl}-N,N-dimethyl-acetamide] | 65
4 | CN(C)C(=O)Nc1ccc(/C=C/S(=O)(=O)N2CCC3(CC2)N=C(C2CCCCC2)NC3=O)c(C(F)(F)F)c1 [Compound 194, 3-{4-[(E)-2-(2-cyclohexyl-4-oxo-1,3,8-triaza-spiro[4.5]dec-1-ene-8-sulfonyl)-vinyl]-3-trifluoromethyl-phenyl}-1,1-dimethyl-urea] | 56
5 | O=C(Nc1ccc(/C=C/S(=O)(=O)N2CCC3(CC2)N=C(C2CCCCC2)NC3=O)c(C(F)(F)F)c1)C1CC1 [Compound 195, cyclopropanecarboxylic acid {4-[(E)-2-(2-cyclohexyl-4-oxo-1,3,8-triaza-spiro[4.5]dec-1-ene-8-sulfonyl)-vinyl]-3-trifluoromethyl-phenyl}-amide] | 36
6 | O=C(CO)Nc1ccc(/C=C/S(=O)(=O)N2CCC3(CC2)N=C(C2CCCCC2)NC3=O)c(C(F)(F)F)c1 [Compound 196, N-{4-[(E)-2-(2-cyclohexyl-4-oxo-1,3,8-triaza-spiro[4.5]dec-1-ene-8-sulfonyl)-vinyl]-3-trifluoromethyl-phenyl}-2-hydroxy-acetamide] | 66
7 | COC(=O)Nc1ccc(C)c(/C=C/S(=O)(=O)N2CCC3(CC2)N=C(C2CCCCC2)NC3=O)c1 [Compound 197, {3-[(E)-2-(2-cyclohexyl-4-oxo-1,3,8-triaza-spiro[4.5]dec-1-ene-8-sulfonyl)-vinyl]-4-methyl-phenyl}-carbamic acid methyl ester] | 41
8 | O=C(NCCO)Nc1ccc(/C=C/S(=O)(=O)N2CCC3(CC2)N=C(C2CCCCC2)NC3=O)c(C(F)(F)F)c1 [Compound 198, 1-{4-[(E)-2-(2-cyclohexyl-4-oxo-1,3,8-triaza-spiro[4.5]dec-1-ene-8-sulfonyl)-vinyl]-3-trifluoromethyl-phenyl}-3-(2-hydroxy-ethyl)-urea] | 31
9 | Cc1ccc(NCCO)cc1/C=C/S(=O)(=O)N1CCC2(CC1)N=C(C1CCCCC1)NC2=O [Compound 199, 2-cyclohexyl-8-{(E)-2-[5-(2-hydroxy-ethylamino)-2-methyl-phenyl]-ethenesulfonyl}-1,3,8-triaza-spiro[4.5]dec-1-en-4-one] | 46
10 | Cc1cccc(NCCO)c1/C=C/S(=O)(=O)N1CCC2(CC1)N=C(C1CCCCC1)NC2=O [Compound 200, 2-cyclohexyl-8-{(E)-2-[2-(2-hydroxy-ethylamino)-6-methyl-phenyl]-ethenesulfonyl}-1,3,8-triaza-spiro[4.5]dec-1-en-4-one] | 37
11 | CN(C)C(=O)CNc1ccc(/C=C/S(=O)(=O)N2CCC3(CC2)N=C(C2CCCCC2)NC3=O)c(C(F)(F)F)c1 [Compound 201, 2-{4-[(E)-2-(2-cyclohexyl-4-oxo-1,3,8-triaza-spiro[4.5]dec-1-ene-8-sulfonyl)-vinyl]-3-trifluoromethyl-phenylamino}-N,N-dimethyl-acetamide] | 56
12 | CC1(C)OC[C@H](Cn2cc(F)c3c(/C=C/S(=O)(=O)N4CCC5(CC4)N=C(C4CCCCC4)NC5=O)cccc32)O1 [Compound 202, 2-cyclohexyl-8-{(E)-2-[1-((S)-2,2-dimethyl-[1,3]dioxolan-4-ylmethyl)-3-fluoro-1H-indol-4-yl]-ethenesulfonyl}-1,3,8-triaza-spiro[4.5]dec-1-en-4-one] | 27
13 | Cc1cc(C(=O)N2CC(F)(F)C(F)(F)C2)ccc1/C=C/S(=O)(=O)N1CCC2(CC1)N=C(C1CCCCC1)NC2=O [Compound 203, 2-cyclohexyl-8-{(E)-2-[2-methyl-4-(3,3,4,4-tetrafluoro-pyrrolidine-1-carbonyl)-phenyl]-ethenesulfonyl}-1,3,8-triaza-spiro[4.5]dec-1-en-4-one] | 25
14 | CC(=O)Nc1cc(C)c(/C=C/S(=O)(=O)N2CCC3(CC2)N=C(C2CCCCC2)NC3=O)c(C)c1 [Compound 204, N-{4-[(E)-2-(2-Cyclohexyl-4-oxo-1,3,8-triaza-spiro[4.5]dec-1-ene-8-sulfonyl)-vinyl]-3,5-dimethyl-phenyl}-acetamide] | 110
15 | Cc1cc(OCCC(O)CO)ccc1/C=C/S(=O)(=O)N1CCC2(CC1)N=C(c1cccc(C(F)(F)F)c1)NC2=O (stereo not shown) [Compound 210, 8-{(E)-2-[4-(3,4-Dihydroxy-butoxy)-2-methyl-phenyl]-ethenesulfonyl}-2-(3-trifluoromethyl-phenyl)-1,3,8-triaza-spiro[4.5]dec-1-en-4-one] | 79

Continued, values first:

Row | cAMP production activity (%) | SMILES
16 | 47 | CC(C)(C)OC(=O)NCc1ccc(/C=C/S(=O)(=O)N2CCC3(CC2)N=C(C2CCCCC2)NC3=O)c(C(F)(F)F)c1 [Compound 205, {4-[(E)-2-(2-cyclohexyl-4-oxo-1,3,8-triaza-spiro[4.5]dec-1-ene-8-sulfonyl)-vinyl]-3-trifluoromethyl-benzyl}-carbamic acid tert-butyl ester]
17 | 70 | Cc1cc(OC[C@H](O)CO)cc(C)c1/C=C/S(=O)(=O)N1CCC2(CC1)N=C(C1CCCCC1)NC2=O [Compound 206, 2-cyclohexyl-8-{(E)-2-[4-((R)-2,3-dihydroxy-propoxy)-2,6-dimethyl-phenyl]-ethenesulfonyl}-1,3,8-triaza-spiro[4.5]dec-1-en-4-one]
18 | 36 | Cc1cc(NCC2CNC(=O)O2)ccc1/C=C/S(=O)(=O)N1CCC2(CC1)N=C(C1CCCCC1)NC2=O (stereo not shown) [Compound 207, 2-cyclohexyl-8-((E)-2-{2-methyl-4-[(2-oxo-oxazolidin-5-ylmethyl)-amino]-phenyl}-ethenesulfonyl)-1,3,8-triaza-spiro[4.5]dec-1-en-4-one]
19 | 22 | CN(C)CCNC(=O)Cc1ccc(/C=C/S(=O)(=O)N2CCC3(CC2)N=C(C2CCCCC2)NC3=O)cc1 [Compound 208, 2-{4-[(E)-2-(2-cyclohexyl-4-oxo-1,3,8-triaza-spiro[4.5]dec-1-ene-8-sulfonyl)-vinyl]-phenyl}-N-(2-dimethylamino-ethyl)-acetamide]
20 | 24 | CC1CCC(C2=NC3(CCN(S(=O)(=O)/C=C/c4cccc(C#N)c4)CC3)C(=O)N2)CC1 (stereo not shown) [Compound 209, 3-{(E)-2-[2-(4-Methyl-cyclohexyl)-4-oxo-1,3,8-triaza-spiro[4.5]dec-1-ene-8-sulfonyl]-vinyl}-benzonitrile]
21 | 60 | O=C1NC(c2cccc(C(F)(F)F)c2)=NC12CCN(S(=O)(=O)/C=C/c1ccc(NCCO)cc1C(F)(F)F)CC2 [Compound 211, 8-{(E)-2-[4-(2-hydroxy-ethylamino)-2-trifluoromethyl-phenyl]-ethenesulfonyl}-2-(3-trifluoromethyl-phenyl)-1,3,8-triaza-spiro[4.5]dec-1-en-4-one]
22 | 59 | Cc1cc(C(=O)N2CCCC2)ccc1/C=C/S(=O)(=O)N1CCC2(CC1)N=C(c1cccc(C(F)(F)F)c1)NC2=O [Compound 212, 8-{(E)-2-[2-methyl-4-(pyrrolidine-1-carbonyl)-phenyl]-ethenesulfonyl}-2-(3-trifluoromethyl-phenyl)-1,3,8-triaza-spiro[4.5]dec-1-en-4-one]
23 | 74 | Cc1cc(S(N)(=O)=O)ccc1/C=C/S(=O)(=O)N1CCC2(CC1)N=C(c1cccc(C(F)(F)F)c1)NC2=O [Compound 213, 3-methyl-4-{(E)-2-[4-oxo-2-(3-trifluoromethyl-phenyl)-1,3,8-triaza-spiro[4.5]dec-1-ene-8-sulfonyl]-vinyl}-benzenesulfonamide]
24 | 84 | Cc1cc(C(=O)N(C)CCO)ccc1/C=C/S(=O)(=O)N1CCC2(CC1)N=C(c1cccc(C(F)(F)F)c1)NC2=O [Compound 214, N-(2-hydroxy-ethyl)-3,N-dimethyl-4-{(E)-2-[4-oxo-2-(3-trifluoromethyl-phenyl)-1,3,8-triaza-spiro[4.5]dec-1-ene-8-sulfonyl]-vinyl}-benzamide]
25 | 81 | CC(=O)Nc1ccc(/C=C/S(=O)(=O)N2CCC3(CC2)N=C(c2cccc(C(F)(F)F)c2)NC3=O)c(C)c1 [Compound 215, N-(3-Methyl-4-{(E)-2-[4-oxo-2-(3-trifluoromethyl-phenyl)-1,3,8-triaza-spiro[4.5]dec-1-ene-8-sulfonyl]-vinyl}-phenyl)-acetamide]

Source: US9169254B2, “Spiroimidazolone derivative” (Chugai Seiyaku Kabushiki Kaisha, priority 2009, dated 2015)
